Data set [1] is described as follows: Toxicity against Photobacterium phosphoreum T3 mutant assessed as inhibition of luminescence after 15 mins by microtox test. Particulars: Photobacterium phosphoreum T3 mutant (luminescent bacteria), read-out: LC50. The format is organism-based.
Data set [2] concerns the target T1, Type-1 angiotensin II receptor (Homo sapiens, UniProt P30556).
T1 sequence (P30556 whole entry): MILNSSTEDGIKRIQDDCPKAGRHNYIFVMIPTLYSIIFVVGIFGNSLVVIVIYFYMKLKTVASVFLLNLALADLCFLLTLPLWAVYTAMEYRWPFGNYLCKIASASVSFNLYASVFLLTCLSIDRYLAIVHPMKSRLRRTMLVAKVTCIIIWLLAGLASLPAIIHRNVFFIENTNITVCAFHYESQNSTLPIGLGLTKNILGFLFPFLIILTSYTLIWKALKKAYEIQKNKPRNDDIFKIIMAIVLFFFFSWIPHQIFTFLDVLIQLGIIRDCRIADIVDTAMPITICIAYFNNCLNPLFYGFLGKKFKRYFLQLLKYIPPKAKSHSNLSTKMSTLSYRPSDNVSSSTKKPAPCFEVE
The data set is described as follows: Displacement of [125I]Sar1 Ile8-Ang 2 from angiotensin 2 AT1 receptor after 180 mins by gamma counting. On the technique in general: In a radioligand displacement assay an active substance lowers the binding of a labelled ligand.

Data set [3] concerns the target T2, Type-2 angiotensin II receptor (Homo sapiens, UniProt P50052).
T2 sequence (P50052 whole entry): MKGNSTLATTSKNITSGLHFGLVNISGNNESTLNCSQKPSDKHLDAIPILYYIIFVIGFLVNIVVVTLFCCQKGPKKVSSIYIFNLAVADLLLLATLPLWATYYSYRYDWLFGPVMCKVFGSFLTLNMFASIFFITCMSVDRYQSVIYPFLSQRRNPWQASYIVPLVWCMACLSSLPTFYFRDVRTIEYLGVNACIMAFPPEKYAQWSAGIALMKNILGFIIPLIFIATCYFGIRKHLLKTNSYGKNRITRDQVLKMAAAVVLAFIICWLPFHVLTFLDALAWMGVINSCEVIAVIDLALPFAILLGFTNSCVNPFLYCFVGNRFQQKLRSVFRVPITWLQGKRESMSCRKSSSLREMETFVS
Description: Displacement of [125I]Sar1 Ile8-Ang 2 from angiotensin 2 AT2 receptor after 180 mins by gamma counting.

The target of data set [4] is T3, Type-1 angiotensin II receptor (Oryctolagus cuniculus, UniProt P34976).
T3 sequence (P34976 whole entry): T1 sequence (P30556 whole entry) with I2M, V49A, I254V, I270V, R272H, R311K, T349S, A353V
The data set is described as follows: Antagonist activity at angiotensin 2 AT1 receptor in Japanese White rabbits thoracic aorta assessed as inhibition of angiotensin II-induced contraction after 60 mins. Particulars: read-out: pA2 (converted).

The test system of data set [5] is Rattus norvegicus. The data set is described as follows: Antihypertensive activity in spontaneously hypertensive rat assessed as decrease in blood pressure at 10 mg/kg, po by tail plethysmography. The format is functional.
The target in data set [6] is T4, Type-1 angiotensin II receptor (Homo sapiens) (UniProt P30556).
T4 sequence (whole entry): T1 sequence (P30556 whole entry)
The data set is described as follows: Ratio of losartan IC50 to compound IC50 for angiotensin 2 AT1 receptor.

Substitutions are numbered along the chain they refer to. In brackets after ≈: the same amount, converted by molar mass.

In general, IC50 refers to the midpoint of a concentration-inhibition curve. Read a high IC50 as a need for much substance.

On to `CCCc1nc2c(C)cc(C(=O)NCCc3ccccc3F)cc2n1Cc1ccc(-c2ccccc2C(=O)O)cc1`, for which the EC50 (luminescence inhibition) at 0.25 h in data set [1] worked out at 65 µg/mL (≈ 118 µM). For the same compound, the IC50 in data set [2] is 106 nM.
Turning to `CCCc1nc2c(C)cc(C(=O)NCc3ccc(OC)c(OC)c3)cc2n1Cc1ccc(-c2ccccc2C(=O)O)cc1`, the EC50 (luminescence inhibition) at 0.25 h in data set [1] was > 100 µg/mL. For the same compound, the half-inhibitory concentration (IC50) in data set [2] was 30.6 nM; in data set [3] it was > 10000 nM.
For `CCCc1nc2c(C)cc(C(=O)NCCc3cccc(OC)c3)cc2n1Cc1ccc(-c2ccccc2C(=O)O)cc1` the same measures were 72 µg/mL (≈ 128 µM), 30.8 nM and > 10000 nM.
Taken in the same sequence, the figures for `CCCc1nc2c(C)cc(C(=O)NCCc3ccc(OC)cc3)cc2n1Cc1ccc(-c2ccccc2C(=O)O)cc1` were > 100 µg/mL, 214 nM and 1500 nM.
`CCCc1nc2c(C)cc(C(=O)NCc3ccc(OC)cc3)cc2n1Cc1ccc(-c2ccccc2C(=O)O)cc1`: the Kb in data set [4] was 4.79 nM. Moreover, in data set [1], the EC50 (luminescence inhibition) at 0.25 h was > 100 µg/mL. Also, the half-maximal inhibitory concentration (IC50) turned out to be 4.3 nM in data set [2] and 3600 nM in data set [3].
For the compound `CCCc1nc2c(C)cc(C(=O)NCCc3cc(OC)ccc3OC)cc2n1Cc1ccc(-c2ccccc2C(=O)O)cc1`, the Kb in data set [4] is 3.16 nM. For the same compound, the Activity in data set [5] is >30 mmHg. The EC50 (luminescence inhibition) at 0.25 h in data set [1] is > 100 µg/mL. Besides, the Ratio IC50 in data set [6] is 12. Further, the IC50 was determined as 1.3 nM in data set [2] and 1400 nM in data set [3].
As to `CCCc1nc2c(C)cc(C(=O)NCc3cccc(OC)c3)cc2n1Cc1ccc(-c2ccccc2C(=O)O)cc1`, the EC50 (luminescence inhibition) at 0.25 h in data set [1] is > 100 µg/mL. The 50% inhibitory concentration (IC50) was 326 nM in data set [2] and > 10000 nM in data set [3].
For `CCCc1nc2c(C)cc(C(=O)NCCc3ccc(OC)c(OC)c3)cc2n1Cc1ccc(-c2ccccc2C(=O)O)cc1` the same measures were > 100 µg/mL, 57.6 nM and 1200 nM.
For the compound `CCCc1nc2c(C)cc(C(=O)NCc3ccccc3)cc2n1Cc1ccc(-c2ccccc2C(=O)O)cc1`, in data set [1], the EC50 (luminescence inhibition) at 0.25 h worked out at 78 µg/mL (≈ 151 µM). This compound registered an IC50 in data set [2] of 52.5 nM.
Consider `CCCc1nc2c(C)cc(C(=O)NCCc3ccc(F)cc3)cc2n1Cc1ccc(-c2ccccc2C(=O)O)cc1`, for which the EC50 (luminescence inhibition) at 0.25 h in data set [1] was 89 µg/mL (≈ 162 µM). Besides, the figures for the half-maximal inhibitory concentration (IC50) in data set [2] and in data set [3] were 198 nM and 1300 nM, respectively.
Take `CCCc1nc2c(C)cc(C(=O)NCc3ccccc3OC)cc2n1Cc1ccc(-c2ccccc2C(=O)O)cc1`: in data set [4], the Kb is 6.92 nM. Besides, the EC50 (luminescence inhibition) at 0.25 h in data set [1] was > 100 µg/mL. For the same compound, the IC50 in data set [2] was found to be 2.4 nM; in data set [3] it was 1100 nM.

The values are drawn from ChEMBL document CHEMBL1944634, “Design, synthesis and biological evaluation of 6-substituted aminocarbonyl benzimidazole derivatives as nonpeptidic angiotensin II AT1 receptor antagonists” (Eur J Med Chem, 2012).
